The term GI50 denotes the concentration at which growth is held to half of that of the control.

Each structure is given as a SMILES string.

The values below come from ChEMBL document CHEMBL1156644, “Cembrane diterpenes from the gorgonian Leptogorgia laxa” (2008).

Type in all cases: functional
Experiment [1] concerns MDA-MB-231. Briefly: Cytotoxicity against human MDA-MB-231 cells by SRB method.
The test system of experiment [2] is HT-29. The experiment is described as follows: Cytotoxicity against human HT29 cells by SRB method. A general note: In SRB staining, fixed cells bind dye roughly in proportion to their protein.
Experiment [3] has as its system A549. The experiment is described as follows: Cytotoxicity against human A549 cells by SRB method.

Turning to `C=C(C)[C@@H]1CC/C(C)=C/CC/C(C)=C/C(=O)C[C@@]2(C)O[C@@H]2C1` [LEPTODIENONE B], the results for the GI50 in experiment [1], in experiment [2] and in experiment [3] were 6.3 µM, 10.9 µM and 5.6 µM, respectively.

With `C=C(C)[C@@H]1CC/C(C)=C/CC/C(C)=C\C(=O)C[C@@]2(C)O[C@@H]2C1` [LEPTODIENONE A], the figures for the 50% growth inhibitory concentration (GI50) in experiment [1] and in experiment [2] were 16.2 µM and 14.9 µM, respectively.
